Measurements as given in US11180495B2 (Abbisko Therapeutics Co., Ltd., priority 2017, dated 2021).

Legend:
CSF-1R = target: T1, CSF-1R (Homo sapiens, UniProt P07333); assay: CSF-1R in vitro biochemical kinase study (ADP-Glo assay); conditions: 3.95 nM CSF-1R, 500 μM ATP, 30° C. 60 min, read-out: Enzymatic experiment CSF-1R IC50
T1 construct: 3.95 nM of CSF-1R, 500 μM of ATP and 0.2 mg/mL of polypeptide
Method: In the present invention, the inhibitory activity of compounds against the CSF-1R activity was determined by using CSF-1R ADP-Glo assay. The compound-mediated inhibition effect was achieved by inhibiting the production of ADP from consumption of ATP, and the activities of compounds were evaluated by using the ADP-Glo kit (Promega, cat. No. V9101). The specific experimental process was as follows: • 1. The kinase reaction performed in the present invention was carried out in a 384-well plate (Perkinelmer, cat. No. 6007290), and 3.95 nM of CSF-1R, 500 μM of ATP and 0.2 mg/mL of polypeptide (Poly (Glu4, Try1), Sigma, cat. No. P0275) were respectively weighed and added to each well: • 2. following reagents were then added to each well to reach the final reaction system: 40 mM Tris, pH 7.5, 20 mM MgCl2, 0.01% Triton X-100, 0.1 mg/mL BSA, 2.5 mM DTT and 0.1% DMSO; • 3. the reaction was conducted at 30° C. for 60 min; • 4. then an equal volume of stop solution (ADP-Glo) was added to the kinase reaction system; • 5. the mixed solution was incubated at 25° C. for 60 min, and the kinase reaction was then terminated; • 6. a two-fold volume of detection reagent was then added to each well; • 7. the mixed solution was incubated at 25° C. for 30 min; • 8. the compound IC50 value was measured by using a plate reader (Tecan, M1000) and a four-parameter curve was generated in Graphpad Prism. B. KIT/PDGFRA In Vitro Biochemical Kinase Study • 1. Preparation of 1-fold kinase buffer and stop solution • 1.1 1-fold kinase buffer: 50 mM HEPES, pH 7.5, 0.0015% Brij-35. • 1.2 stop solution: 100 mM HEPES, pH 7.5, 0.015% Brij-35, 0.2% Coating Reagent #3 50 mM EDTA • 2. Preparation of compound solution • 2.1 Dilution of compound solution • 1) The final concentration of the compound solution was 40 μM. and the concentration of the prepared stock solution was 50 times of the final concentration, i.e., 2 mM. • 2) 80 μL of 100% DMSO was added to the second well of the 96-well plate, then 20 μL of 10 mM compound solution was added, and thereby 2 mM compound solution was prepared, 60 μL of 100% DMSO was added to other wells, 20 μL of compound was taken from the second well, added to the third well and diluted by 4 times. This serial 4-time dilution was conducted in sequence for the total of 10 concentrations. • 2.2 5-fold compound solution transferred to a reaction plate • 1) 10 μL of solution was taken from each well of the above 96-well plate and added to another 96-well plate, and 90 μL of kinase buffer was added. • 2) 5 μL of solution was taken from the above 96-well plate and added to a 384-well reaction plate. • 2.3 Kinase reaction • 1) KIT/PDGFRA kinase was added to the 1-fold kinase buffer solution to obtain a 2.5-fold kinase solution. • 2) FAM-labeled polypeptide and ATP were added to the 1-fold kinase buffer solution to obtain a 2.5-fold substrate solution. • 3) 10 μL of 2.5-fold kinase solution was added to the 384-well reaction plate, which already contained 5 μL of 5-fold compound in 10% DMSO. And the mixed solution was incubated at room temperature for 10 min. • 4) 10 μL of 2.5-fold substrate solution was added to the 384-well reaction plate. • 5) Kinase reaction and termination: the mixed solution was incubated at 28° C. for a certain period of time, and 25 μL of stop solution was added to stop the reaction. • 2.4 Data reading of Caliper EZ Reader II • 2.5 Calculation of percent inhibition and IC50 • 1) Percent conversion data were copied from the Caliper EZ Reader. • 2) Percent conversion was converted into percent inhibition data, wherein, max referred to percent conversion of the DMSO control, and min referred to percent conversion of the negative control without kinase activity. Percent inhibition=(max−conversion)/(max−min)*100. • 3) The IC50 value was fitted with XLFit excel add-in version 5.4.0.8: Fitting formula: Y=Bottom+(Top−Bottom)/(1+(IC50/X)^HillSlope).

[1] = system: M-07e human cytomegalic leukemia cells; assay: KIT-related cell proliferation experiment (Cell Titer Glo); type: cell-based; conditions: 72 h, M-07e cells, SCF, 3 days, CTG, read-out: Cytological experiment KIT IC50
Method: (§1) Functional effects of compounds on the proliferation of several cell lines were evaluated by Cell Titer Glo (CTG) studies in the present invention, and effects of the compounds on the proliferation of different cells were evaluated to determine the selectivity degree of the compounds. In the study, M-07e human cytomegalic leukemia cells (cat. No. CBP60791) from Nanjing Kebai Biotechnology Co., Ltd. were cultured in an incubator under conditions of RPMI1640 (Gibco, cat. No. 11875-119), 20% fetal bovine serum (Gibco, 10099-141), human 10 ng/mL GM-CSF granulocyte macrophage colony-stimulating factors (R&D, cat. No. 215-GM-010), 37° C. and 5% CO2; and Kasumi-1 human acute myeloblastic leukemia cells (cat. No. CBP60524) were cultured in an incubator under conditions of RPMI1640 (Gibco, cat. No. 11875-119), 20% fetal bovine serum (Gibco, 10099-141), 37° C. and 5% CO2; NCI-H1703 human non-small cell lung squamous carcinoma cells (cat. No. CBP60115) were cultured in an incubator under conditions of RPMI1640 (Gibco, cat. No. 11875-119), 10% fetal bovine serum (Gibco, 10099-141), 37° C. and 5% CO2; and MV-4-11 human acute monocytic leukemia cells (cat. No. CBP60522) were cultured in an incubator under conditions of IMDM (Invitrogen, cat. No. 12440053), 20% fetal bovine serum (Gibco, 10099-141), 37° C. and 5% CO2. Since ATP is an index for viable cell metabolism, CTG (Promega, #G7573) reagent is a homogeneous detection method for detecting the number of viable cells in the culture by quantifying ATP. Therefore, compound-mediated inhibition for cell proliferation/survival was evaluated by quantifying ATP content in cells, and the specific experimental process was as follows.
I) M-07e Human Cytomegalic Leukemia Cell: • 1. The cells were plated into a tissue-culture-medium-treated 96-well plate (Costar #3904) with 3500 cells/well/80 μL fresh culture medium, and cultured for 24 hrs; • 2. the next day, 10 μL of culture medium containing testing compound with 10-fold of final concentration was added to each well; • 3.

[2] = system: MV-4-11 human acute monocytic leukemia cells; assay: FLT3-related cell proliferation experiment (Cell Titer Glo); type: cell-based; conditions: MV4-11, 72 h, MV-4-11 cells, 3 days, CTG, read-out: Cytological experiment FLT3 IC50
Method: as §1
III) MV-4-11 Human Acute Monocytic Leukemia Cell • 1.

T1 sequence (P07333 20-972): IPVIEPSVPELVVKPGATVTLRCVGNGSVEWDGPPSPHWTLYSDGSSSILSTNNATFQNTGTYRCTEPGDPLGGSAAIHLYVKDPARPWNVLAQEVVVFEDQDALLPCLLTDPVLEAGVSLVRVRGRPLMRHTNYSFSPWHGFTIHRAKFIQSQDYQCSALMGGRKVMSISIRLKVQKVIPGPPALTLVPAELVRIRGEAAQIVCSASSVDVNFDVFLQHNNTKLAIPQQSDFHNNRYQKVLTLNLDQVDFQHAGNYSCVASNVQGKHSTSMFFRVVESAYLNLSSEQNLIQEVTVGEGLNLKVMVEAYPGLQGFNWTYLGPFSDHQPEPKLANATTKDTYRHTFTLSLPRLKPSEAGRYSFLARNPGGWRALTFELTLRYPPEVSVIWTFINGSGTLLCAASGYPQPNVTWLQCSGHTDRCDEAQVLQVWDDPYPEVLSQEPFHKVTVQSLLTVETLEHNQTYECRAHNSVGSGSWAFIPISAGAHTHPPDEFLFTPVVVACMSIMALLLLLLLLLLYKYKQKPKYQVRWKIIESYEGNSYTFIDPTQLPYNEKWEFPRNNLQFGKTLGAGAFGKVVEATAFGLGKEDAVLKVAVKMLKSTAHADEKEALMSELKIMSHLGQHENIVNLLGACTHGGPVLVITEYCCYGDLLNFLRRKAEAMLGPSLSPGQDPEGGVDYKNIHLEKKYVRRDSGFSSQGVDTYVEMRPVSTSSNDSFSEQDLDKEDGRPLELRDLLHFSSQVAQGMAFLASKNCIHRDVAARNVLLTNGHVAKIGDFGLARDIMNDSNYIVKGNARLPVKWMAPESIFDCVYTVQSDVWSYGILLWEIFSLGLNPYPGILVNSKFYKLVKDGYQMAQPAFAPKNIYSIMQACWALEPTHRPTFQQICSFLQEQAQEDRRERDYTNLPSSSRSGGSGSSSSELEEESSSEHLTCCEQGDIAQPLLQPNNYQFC

| IC50 (CSF-1R) | IC50 [1] | IC50 [2] | Structure (SMILES) |
| --- | --- | --- | --- |
| 45.9 nM | 1120 nM | > 2000 nM | Cc1nc(-c2cnc(NC(C)C)[nH]c2=O)ccc1Cc1c[nH]c2ncc(F)cc12 [Example 5, 5-(5-((5-fluoro-1H-pyrrolo[2,3-b]pyridin-3-yl)methyl)-6-methylpyridin-2-yl)-2-(isopropylamino)pyrimidin-4(3H)-one] |
| 36.7 nM | 834 nM | 1290 nM | Cc1nc(-c2cnc(NC(C)C)n(C)c2=O)ccc1Cc1c[nH]c2ncccc12 [Example 7, 5-(5-((1H-pyrrolo[2,3-b]pyridin-3-yl)methyl)-6-methylpyridin-2-yl)-2-(isopropylamino)-3-methylpyrimidin-4(3H)-one] |
| 65.6 nM | 1200 nM | > 6000 nM | Cc1nc(-c2cnc3n(c2=O)CCCN3C)ccc1Cc1c[nH]c2ncc(Cl)cc12 [Example 13, 3-(5-((5-chloro-1H-pyrrolo[2,3-b]pyridin-3-yl)methyl)-6-methylpyridin-2-yl)-9-methyl-6,7,8,9-tetrahydro-4H-pyrimido[1,2-a]pyrimidin-4-one] |
| 55.2 nM | 10600 nM | > 18000 nM | Cc1nc(-c2cnc3n(c2=O)CCCN3C)ccc1Cc1c[nH]c2ncccc12 [Example 14, 3-(5-((1H-pyrrolo[2,3-b]pyridin-3-yl)methyl)-6-methylpyridin-2-yl)-9-methyl-6,7,8,9-tetrahydro-4H-pyrimido[1,2-a]pyrimidin-4-one] |
| 49.5 nM | 788 nM | > 2000 nM | Cc1nc(-c2cnc3n(c2=O)CCC(C)N3C)ccc1Cc1c[nH]c2ncc(Cl)cc12 (stereo not drawn) [Example 15, 3-(5-((5-chloro-1H-pyrrolo[2,3-b]pyridin-3-yl)methyl)-6-methylpyridin-2-yl)-8,9-dimethyl-6,7,8,9-tetrahydro-4H-pyrimido[1,2-a]pyrimidin-4-one] |
| 45.6 nM | 271 nM | 876 nM | CCN1CCCn2c1ncc(-c1ccc(Cc3c[nH]c4ncc(Cl)cc34)c(C)n1)c2=O [Example 16, 3-(5-((5-chloro-1H-pyrrolo[2,3-b]pyridin-3-yl)methyl)-6-methylpyridin-2-yl)-9-ethyl-6,7,8,9-tetrahydro-4H-pyrimido[1,2-a]pyrimidin-4-one] |
| 5.35 nM | 38.5 nM | 27.4 nM | CCN1CCCn2c1ncc(-c1ccc(Cc3c[nH]c4ncc(-c5cnn(C)c5)cc34)c(C)n1)c2=O [Example 17] |
| 4.34 nM | 232 nM | 505 nM | Cc1nc(-c2cnc3n(c2=O)CCCN3C)ccc1Cc1c[nH]c2ncc(-c3cnn(C)c3)cc12 [Example 18, 9-methyl-3-(6-methyl-5-((5-(1-methyl-1H-pyrazol-4-yl)-1H-pyrrolo[2,3-b]pyridin-3-yl)methyl)pyridin-2-yl)-6,7,8,9-tetrahydro-4H-pyrimido[1,2-a]pyrimidin-4-one] |
| 46.1 nM | 3190 nM | > 18000 nM | Cc1nc(-c2cnc3n(c2=O)CCCN3C)ccc1Cc1c[nH]c2ncc(F)cc12 [Example 20, 3-(5-((5-fluoro-1H-pyrrolo[2,3-b]pyridin-3-yl)methyl)-6-methylpyridin-2-yl)-9-methyl-6,7,8,9-tetrahydro-4H-pyrimido[1,2-a]pyrimidin-4-one] |
| 96.3 nM | 1510 nM | > 18000 nM | Cc1cnc2[nH]cc(Cc3ccc(-c4cnc5n(c4=O)CCCN5C)nc3C)c2c1 [Example 21, 9-methyl-3-(6-methyl-5-((5-methyl-1H-pyrrolo[2,3-b]pyridin-3-yl)methyl)pyridin-2-yl)-6,7,8,9-tetrahydro-4H-pyrimido[1,2-a]pyrimidin-4-one] |
| 43.5 nM | 1520 nM | > 6000 nM | COc1cnc2[nH]cc(Cc3ccc(-c4cnc5n(c4=O)CCCN5C)nc3C)c2c1 [Example 22, 3-(5-((5-methoxy-1H-pyrrolo[2,3-b]pyridin-3-yl)methyl)-6-methylpyridin-2-yl)-9-methyl-6,7,8,9-tetrahydro-4H-pyrimido[1,2-a]pyrimidin-4-one] |
| 38.9 nM | 1840 nM | > 2000 nM | Cc1nc(-c2cnc3n(c2=O)CCCN3C)ccc1Cc1c[nH]c2ncc(O)cc12 [Example 23] |
